What was measured:
Experiment in all cases: Lineweaver-Burk, initial rates
Assay type in all cases: biochemical
Details in all cases: 20 °C, PLP 30 µM, 0.1-6 mM L-DOPA
TPL-18A = system: TPL-18A
Source text: Lineweaver-Burk, initial rates on TPL-18A | The Vmax of TPL-DKL6, TPL-ELP10, TPL-EAK16, TPL-18A, and TPL-GFIL16 was higher

TPL = system: T1, TPL
T1 construct: 6xHis tag kept, pET28a, E. coli BL21(DE3) host, His-Trap purified; 52 kDa; tetramer

TPL-DKL6 = system: TPL-DKL6
TPL-EAK16 = system: TPL-EAK16
TPL-ELP10 = system: TPL-ELP10
TPL-GFIL16 = system: TPL-GFIL16

N[C@@H](Cc1ccc(O)c(O)c1)C(=O)O [L-DOPA]
Km (TPL-18A): 2180 ± 356 µM
Km (TPL): 2190 µM
Km (TPL-DKL6): 2320 ± 504 µM
Km (TPL-EAK16): 2360 ± 26 µM
Km (TPL-ELP10): 2680 ± 129 µM
Km (TPL-GFIL16): 2220 ± 14 µM

Source: PMC7508748, “Active tyrosine phenol-lyase aggregates induced by terminally attached functional peptides in Escherichia coli” (Journal of Industrial Microbiology & Biotechnology, 2020)
